Measurements published in ChEMBL document CHEMBL1201862, “PubChem BioAssay data set” (2004).
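Values below derive from 48-hour exposures of cells grown in 96-well plates, with endpoints linearly interpolated between the two concentrations bracketing the appropriate inhibition level. GI50 = concentration required for 50% inhibition of growth.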 Activity calls are given as the source filed them. Cut-off read from the data, not from the text of the source: active = GI50 up to about 1.1 µM and inactive = higher.

Columns and labels:
Experiment in all cases: inhibition of tumour cell growth, NCI panel, 48 h
[1] = test system: U-251
[2] = test system: A498
[3] = test system: MDA-MB-435
[4] = test system: OVCAR-4
[5] = test system: Malme-3M
[6] = test system: LOX IMVI
[7] = test system: OVCAR-5
[8] = test system: DU-145
[9] = test system: MCF7
[10] = test system: EKVX
[11] = test system: SK-OV-3
[12] = test system: OVCAR-8
[13] = test system: CAKI-1
[14] = test system: KM12
[15] = test system: RXF 393
[16] = test system: NCI-H23
[17] = test system: HL-60
[18] = test system: ACHN
[19] = test system: NCI-H460
[20] = test system: A549
[21] = test system: PC-3
[22] = test system: TK-10
[23] = test system: MDA-MB-231
[24] = test system: SF-539
[25] = test system: COLO 205
[26] = test system: 786-0
[27] = test system: BT-549
[28] = test system: SK-MEL-5
[29] = test system: SF-268
[30] = test system: SK-MEL-2
[31] = test system: MOLT-4
[32] = test system: SN12C
[33] = test system: SW-620
[34] = test system: HOP-62
[35] = test system: SNB-19
[36] = test system: IGROV-1
[37] = test system: UACC-257
[38] = test system: SF-295
[39] = test system: CCRF-CEM
[40] = test system: HCT-116
[41] = test system: NCI-H522
[42] = test system: SK-MEL-28
[43] = test system: HCC 2998
[44] = test system: NCI-H226
[45] = test system: HCT-15
[46] = test system: NCI/ADR-RES
[47] = test system: SNB-75
[48] = test system: M14
[49] = test system: OVCAR-3
[50] = test system: HT-29
[51] = test system: UO-31
[52] = test system: K562
[53] = test system: UACC-62
[54] = test system: SR
[55] = test system: Hs-578T
[56] = test system: HOP-92
[57] = test system: MDA-N
[58] = test system: T47D
[59] = test system: RPMI-8226

## c1ccc(Nc2nnc(CCCCCCCCc3nnc(Nc4ccccc4)o3)o2)cc1
[1]
  GI50: > 100 µM (inactive)
[2]
  GI50: > 100 µM (inactive)
[3]
  GI50: > 100 µM (inactive)
[4]
  GI50: > 100 µM (inactive)
[5]
  GI50: > 100 µM (inactive)
[6]
  GI50: > 100 µM (inactive)
[7]
  GI50: > 100 µM (inactive)
[8]
  GI50: > 100 µM (inactive)
[9]
  GI50: > 100 µM (inactive)
[10]
  GI50: > 100 µM (inactive)
[11]
  GI50: > 100 µM (inactive)
[12]
  GI50: > 100 µM (inactive)
[13]
  GI50: > 100 µM (inactive)
[14]
  GI50: > 100 µM (inactive)
[15]
  GI50: > 100 µM (inactive)
[16]
  GI50: > 100 µM (inactive)
[17]
  GI50: > 100 µM (inactive)
[18]
  GI50: > 100 µM (inactive)
[19]
  GI50: > 100 µM (inactive)
[20]
  GI50: > 100 µM (inactive)
[21]
  GI50: > 100 µM (inactive)
[22]
  GI50: > 100 µM (inactive)
[23]
  GI50: > 100 µM (inactive)
[24]
  GI50: > 100 µM (inactive)
[25]
  GI50: > 100 µM (inactive)
[26]
  GI50: > 100 µM (inactive)
[27]
  GI50: > 100 µM (inactive)
[28]
  GI50: > 100 µM (inactive)
[29]
  GI50: > 100 µM (inactive)
[30]
  GI50: > 100 µM (inactive)
[31]
  GI50: > 100 µM (inactive)
[32]
  GI50: > 100 µM (inactive)
[33]
  GI50: > 100 µM (inactive)
[34]
  GI50: > 100 µM (inactive)
[35]
  GI50: > 100 µM (inactive)
[36]
  GI50: 60.3 µM (inactive)
[37]
  GI50: > 100 µM (inactive)
[38]
  GI50: > 100 µM (inactive)
[39]
  GI50: > 100 µM (inactive)
[40]
  GI50: > 100 µM (inactive)
[41]
  GI50: > 100 µM (inactive)
[42]
  GI50: > 100 µM (inactive)
[43]
  GI50: 51.6 µM (inactive)
[44]
  GI50: > 100 µM (inactive)
[45]
  GI50: > 100 µM
[46]
  GI50: > 100 µM (inactive)
[47]
  GI50: > 100 µM (inactive)
[48]
  GI50: > 100 µM (inactive)
[49]
  GI50: > 100 µM (inactive)
[50]
  GI50: > 100 µM (inactive)
[51]
  GI50: > 100 µM (inactive)
[52]
  GI50: > 100 µM (inactive)

## COc1cc(C2C(Cl)C(=O)N2NC(=O)c2ccccc2O)cc(OC)c1OC (stereo not given)
[1]
  GI50: 3.54 µM (inactive)
[3]
  GI50: 6.03 µM (inactive)
[4]
  GI50: 3.99 µM (inactive)
[6]
  GI50: 3.7 µM (inactive)
[7]
  GI50: 5.96 µM (inactive)
[8]
  GI50: 0.284 µM (active)
[9]
  GI50: 2.9 µM (inactive)
[10]
  GI50: 5.27 µM (inactive)
[12]
  GI50: 2.47 µM (inactive)
[14]
  GI50: 5.58 µM (inactive)
[15]
  GI50: > 10 µM (inactive)
[16]
  GI50: 2.4 µM (inactive)
[17]
  GI50: 0.733 µM (active)
[18]
  GI50: 3.79 µM (inactive)
[19]
  GI50: 2.64 µM (inactive)
[20]
  GI50: 4.27 µM (inactive)
[21]
  GI50: 3.52 µM (inactive)
[22]
  GI50: 8.51 µM (inactive)
[24]
  GI50: 3.5 µM (inactive)
[26]
  GI50: > 10 µM (inactive)
[27]
  GI50: > 10 µM (inactive)
[53]
  GI50: 2.89 µM (inactive)
[28]
  GI50: 5.07 µM (inactive)
[29]
  GI50: 5.73 µM (inactive)
[31]
  GI50: 3.01 µM (inactive)
[33]
  GI50: 2.63 µM (inactive)
[35]
  GI50: 7.05 µM (inactive)
[36]
  GI50: 0.188 µM (active)
[37]
  GI50: 1.89 µM (inactive)
[38]
  GI50: 1.8 µM (inactive)
[39]
  GI50: 1.65 µM (inactive)
[54]
  GI50: 2.98 µM (inactive)
[55]
  GI50: 8.38 µM (inactive)
[41]
  GI50: 2.87 µM (inactive)
[44]
  GI50: 4.49 µM (inactive)
[56]
  GI50: 5.66 µM (inactive)
[47]
  GI50: > 10 µM (inactive)
[48]
  GI50: 6.31 µM (inactive)
[49]
  GI50: 4.72 µM (inactive)
[50]
  GI50: 2.75 µM (inactive)
[51]
  GI50: 7.76 µM (inactive)
[52]
  GI50: 2.95 µM (inactive)

## O=[N+]([O-])/C(C(Cl)=C(Cl)Cl)=C(/Nc1ccccc1)SCc1ccccc1
[1]
  GI50: 20.1 µM (inactive)
[2]
  GI50: 25.9 µM (inactive)
[3]
  GI50: 17.8 µM (inactive)
[4]
  GI50: 24.7 µM (inactive)
[5]
  GI50: 16.4 µM (inactive)
[6]
  GI50: 20.5 µM (inactive)
[7]
  GI50: 20 µM (inactive)
[8]
  GI50: 23.6 µM (inactive)
[10]
  GI50: 21 µM (inactive)
[11]
  GI50: 52 µM (inactive)
[57]
  GI50: 16.7 µM (inactive)
[12]
  GI50: 17.7 µM (inactive)
[13]
  GI50: 31.9 µM (inactive)
[14]
  GI50: 15.3 µM (inactive)
[15]
  GI50: 19.4 µM (inactive)
[16]
  GI50: 20.1 µM (inactive)
[17]
  GI50: 19.1 µM (inactive)
[18]
  GI50: 28.3 µM (inactive)
[19]
  GI50: 19.8 µM (inactive)
[20]
  GI50: 17.8 µM (inactive)
[21]
  GI50: 24.5 µM (inactive)
[22]
  GI50: 29.8 µM (inactive)
[23]
  GI50: 19.9 µM (inactive)
[24]
  GI50: 23.4 µM (inactive)
[25]
  GI50: 21.9 µM (inactive)
[58]
  GI50: 34.6 µM (inactive)
[26]
  GI50: 17.3 µM (inactive)
[53]
  GI50: 20 µM (inactive)
[28]
  GI50: 21.6 µM (inactive)
[29]
  GI50: 20.5 µM (inactive)
[30]
  GI50: 19.4 µM (inactive)
[31]
  GI50: 17 µM (inactive)
[32]
  GI50: 22.4 µM (inactive)
[33]
  GI50: 26.7 µM (inactive)
[34]
  GI50: 19.1 µM (inactive)
[35]
  GI50: 25.2 µM (inactive)
[36]
  GI50: 22.3 µM (inactive)
[37]
  GI50: 24 µM (inactive)
[38]
  GI50: 34.4 µM (inactive)
[39]
  GI50: 15 µM (inactive)
[40]
  GI50: 16.6 µM (inactive)
[54]
  GI50: 22.3 µM (inactive)
[55]
  GI50: 44.1 µM (inactive)
[41]
  GI50: 23.3 µM (inactive)
[42]
  GI50: 20.4 µM (inactive)
[43]
  GI50: 24.3 µM (inactive)
[44]
  GI50: 21.2 µM (inactive)
[45]
  GI50: 14.4 µM
[46]
  GI50: 16.2 µM (inactive)
[56]
  GI50: 31 µM (inactive)
[48]
  GI50: 16.9 µM (inactive)
[49]
  GI50: 15 µM (inactive)
[59]
  GI50: 14.1 µM (inactive)
[50]
  GI50: 29.6 µM (inactive)
[51]
  GI50: 20.8 µM (inactive)
[52]
  GI50: 24 µM (inactive)
